According to patent publication US10329354B2, “Modulation of efferocytosis pathways for treatment of atherosclerotic disease” (The Board of Trustees of the Leland Stanford Junior …, priority 2013, dated 2019):
Entries after “also recorded” stand apart in the source; their conditions may differ.

Columns and labels:
CDKN2B-deficient SMCs = assay: Phagocytosis of CDKN2B-deficient SMCs by macrophages with anti-CD47 Ab; assay type: cell-based; settings: FIG. 12
Text: Implicating Cdkn2b in “efferocytosis”— the phagocytic clearance of apoptotic debris: an increase in the rate at which apoptotic debris was produced in this chronic disease model could not be observed (P=NS for TUNEL and Caspase assays at both Week 4 and Week 12). It was reasoned that loss of Cdkn2b might regulate the rate at which apoptotic debris is cleared in the developing atherosclerotic plaque. This process, known as “efferocytosis” (from the Greek meaning to carry the dead to the grave), was assessed with established in vitro flow cytometry-based co-culture phagocytosis assays.

CDKN2B = CDKN2B expression in untransfected HCASMC after exogenous TGF-β; assay type: cell-based, human; settings: FIG. 9B
Protocol: Human coronary artery SMC (HCASMC, Lonza, Walkersville, Md., passage #3-6) were propagated in SmGM-2 growth media (Lonza) containing 5% FBS. Human THP-1 monocytic cells, human embryonic kidney (HEK-293) and RAW 264.7 macrophages (ATCC) were grown in DMEM-growth media containing 10% FBS. Primary vascular smooth muscle cells were harvested from the aortas of Cdkn2b^+/+ and Cdkn2b^−/− mice, as previously described. Primary activated macrophages were harvested from mice 72 hrs after intraperitoneal injection of 2 ml of 4% thioglycollate, as previously described. To induce growth arrest and the expression of differentiation genes, SMC were serum starved in basal media (SmBM) for 72 hours, according to conventional protocols.
PCR RNA was isolated from cell lysates using the miRNeasy Mini Kit (Qiagen, Valencia, Calif.) according to the manufacturer's protocol. RNA was isolated from the murine organ samples using the Trizol method (Invitrogen). RNA was quantified with the Nanodrop machine ([…], Santa Clara, Calif.) For quantitation of gene transcription, cDNA was generated with M-MuLV reverse transcriptase, and then amplified on the ABI PRISM 7900HT with commercially available TaqMan primers (Applied Biosystems, Foster City, Calif.) and normalized to 18S internal controls, as previously described. A list of the primers and probes used in these studies is provided in below.

CALR promoter = assay: CALR luciferase promoter reporter assay with TGF-β; assay type: cell-based, human; settings: control-transfected HEK cells, TGFβ-1 0.5-10 ng/mL, 16 hours
Protocol: Calreticulin LightSwitch Promoter Reporter GoClones (RenSP, S721464), Empty vectors (S790005) and Cypridina TK Control constructs (pTK-Cluc, SN0322S) were obtained from SwitchGear Genomics (Menlo Park, Calif.) and transfected into HEK cells using Lipofectamine 2000 (Invitrogen). For knockdown assays, 5 pmol of anti-CDKN2B or control siRNA were co-transfected. For overexpression, CDKN2B (sc319536) and Rb expression plasmid (sc119971) and empty vector (pCMV6) were obtained from Origene and 100 ng of plasmid were co-transfected. Dual luciferase activity was measured with the LightSwitch Dual Assay System after 48 hours using a SpectraMax L luminometer (Molecular Devices), according to the manufacturer's instructions. In some experiments, media was changed to serum-free media after 24 hours of transfection. Studies were performed at baseline, and after the cells had been exposed to escalating doses of recombinant human TGFβ-1 (from Sigma, 0.5-10 ng/mL) for the final 16 hours prior to analysis. Relative luciferase activity (Renilla/Cypridina luciferase ratio) is expressed as the percentage change relative to the basal values obtained from control-transfected cells not exposed to TGF-β treatment.

Substance	increase in phagocytosis of SMCs by Mϕ's (CDKN2B-deficient SMCs; CDKN2B-deficient SMCs) [%]	phagocytosis of CDKN2B-deficient SMCs by macrophages (CDKN2B-deficient SMCs)	CDKN2B expression (CDKN2B)	CALR expression (promoter reporter activity) (CALR promoter)
Hu5F9-G4: humanized anti-CD47 mAb engineered by CDR grafting of mouse sequences into a human IgG4 framework	~72	enables macrophages to phagocytose	–	–
TGF-β: recombinant human TGFβ-1 (from Sigma)	–	–	increased their expression of CDKN2B	increased in response to TGF-β treatment in a dose-dependent manner; also recorded: increased by TGF-β in a dose-dependent manner
